SMILES strings stand for the structures.

The species named for the assay is Rattus norvegicus. Put plainly: In vitro inhibition of Na(+)-gradient-dependent uptake of 32 inorganic phosphate (Pi) by BBM vesicles freshly prepared from the rat renal cortex. On the set-up: concentration or dose not given beside the values. Type of assay: functional.
`O=C(O)P(=O)(O)O` [FOSCARNET]: the Inhibition is recorded as -63%.

As to `O=P(O)(O)C(Cl)(Br)P(=O)(O)c1ccccc1` (configuration not stated), the Inhibition is -31%. With `O=P(O)(O)C(F)P(=O)(O)c1ccccc1` (configuration not stated) the figure was -49%. The result for `O=P(O)(O)C(Br)(Br)P(=O)(O)c1ccccc1` reads -22%; that for `O=P(O)(O)C(F)(F)P(=O)(O)c1ccccc1`, -39%. `O=P(O)(O)C(Cl)P(=O)(O)c1ccccc1` (configuration not stated): the Inhibition is recorded as -30%.

Consider `O=P(O)(O)C(Cl)(Cl)P(=O)(O)c1ccccc1`, for which the Inhibition is recorded as -39%.
